Results taken from PubChem BioAssay (NCI).
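Growth conditions: 96-well plates. Treatment: test compound, 48 hours, 5 concentrations. Analysis: linear interpolation between bracketing concentrations; unreached endpoints set to highest concentration. Abbreviation: GI50, concentration required for 50% inhibition of growth. Definition used: TGI = concentration required for complete inhibition of growth.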

Legend:
Assay in all cases: growth of human tumour cells (NCI), 48 h
OVCAR-3 ovarian = test system: OVCAR-3 ovarian
CAKI-1 renal = test system: CAKI-1 renal
SW-620 colon = test system: SW-620 colon
UACC-62 melanoma = test system: UACC-62 melanoma
UO-31 renal = test system: UO-31 renal
SK-MEL-2 melanoma = test system: SK-MEL-2 melanoma
OVCAR-5 ovarian = test system: OVCAR-5 ovarian
RPMI-8226 leukemia = test system: RPMI-8226 leukemia
T-47D breast = test system: T-47D breast
DMS 273 small cell lung = test system: DMS 273 small cell lung
SNB-78 CNS = test system: SNB-78 CNS

Row | SMILES | GI50 (OVCAR-3 ovarian) | TGI (OVCAR-3 ovarian) | GI50 (CAKI-1 renal) | TGI (CAKI-1 renal) | GI50 (SW-620 colon) | TGI (SW-620 colon) | GI50 (UACC-62 melanoma) | TGI (UACC-62 melanoma) | GI50 (UO-31 renal) | TGI (UO-31 renal) | GI50 (SK-MEL-2 melanoma) | TGI (SK-MEL-2 melanoma) | GI50 (OVCAR-5 ovarian) | TGI (OVCAR-5 ovarian) | GI50 (RPMI-8226 leukemia) | TGI (RPMI-8226 leukemia) | GI50 (T-47D breast) | TGI (T-47D breast) | TGI (DMS 273 small cell lung) | TGI (SNB-78 CNS)
1 | Fc1cc(C2=Nn3c(nnc3-c3cc(F)c(Cl)cc3Cl)SC2)c(Cl)cc1Cl | 11.5 µM | 46.9 µM | 20.6 µM | 60.7 µM | 22.6 µM | 47.2 µM | 13.3 µM | 38.6 µM | 31.3 µM | > 100 µM | 65.3 µM | > 100 µM | 56.8 µM | > 100 µM | 6 µM | 35 µM | 4.93 µM | 32.5 µM |  | 
2 | CC12CCC3C(CCC4(O)C=CCCC34C=O)C1(O)CC(O)C2c1ccc(=O)oc1 (centres undefined) |  | 0.0939 µM |  | 0.0894 µM |  | 0.222 µM |  | 0.145 µM |  | 0.141 µM |  | 0.295 µM |  | 0.638 µM |  | 0.839 µM |  |  | 0.0712 µM | 0.97 µM
3 | Cc1ccc(NCCO)cc1 |  | > 100 µM |  | > 100 µM |  | > 100 µM |  | > 100 µM |  | > 100 µM |  | > 100 µM |  | > 100 µM |  | > 100 µM |  |  |  | > 100 µM
4 | COc1ccc(-c2nnc3c4ccccc4sn23)cc1 |  | 61.5 µM |  |  |  | > 100 µM |  | > 100 µM |  | 80.5 µM |  | > 100 µM |  | > 100 µM |  | > 100 µM |  |  | > 100 µM | > 100 µM
5 | Cc1cc(C)c(S(=O)(=O)N(CCCCCCN)OCCCON(CCCCCCN)S(=O)(=O)c2c(C)cc(C)cc2C)c(C)c1 |  | 3.34 µM |  | 3.7 µM |  |  |  | 3.15 µM |  | 4.04 µM |  | 3.48 µM |  | 2.72 µM |  |  |  |  |  | 
6 | COc1ccc2c(c1)C(=O)/C(=C/c1ccccc1)C2 |  | > 100 µM |  | 60.1 µM |  |  |  | > 100 µM |  | > 100 µM |  | > 100 µM |  | > 100 µM |  | > 100 µM |  |  |  | 
7 | CCCCN(CCCC)C1(c2cc3ccccc3s2)CCCCC1 |  | 29.9 µM |  | 32.8 µM |  | 33.8 µM |  | 31.1 µM |  | 32.9 µM |  | 34.5 µM |  | 32.9 µM |  |  |  | 34.7 µM |  | 
8 | CC1(C)CCCC2(C)[C@@H]1CC[C@]13C[C@](C)(CC[C@@H]21)[C@@H]3CO (some centres undefined) |  | > 100 µM |  | > 100 µM |  | > 100 µM |  | > 100 µM |  | > 100 µM |  |  |  | > 100 µM |  | > 100 µM |  |  | > 100 µM | > 100 µM
9 | CCNc1nc2c(=O)n(C)c(=O)n(C)c2s1 |  | > 100 µM |  |  |  | > 100 µM |  | > 100 µM |  | > 100 µM |  | > 100 µM |  | > 100 µM |  | > 100 µM |  |  |  | > 100 µM
10 | C=C1CC2(C)CCC(OC(=O)C3(C)OC3C)C(C)(OC(C)=O)C2CC1=C(C)C (centres undefined) |  | > 100 µM |  |  |  | > 100 µM |  | > 100 µM |  | > 100 µM |  | > 100 µM |  | > 100 µM |  | > 100 µM |  | > 100 µM |  | 
11 | O=C(O)CSc1nc2ccccc2[nH]1 |  | > 100 µM |  | > 100 µM |  | > 100 µM |  | > 100 µM |  | > 100 µM |  | > 100 µM |  | > 100 µM |  |  |  | > 100 µM |  | 
12 | ClCc1nnc2n1-c1ccc(Cl)cc1SC2 |  | 8.09 µM |  |  |  | 24 µM |  | 8.51 µM |  | 30.3 µM |  | 9.22 µM |  | 24.6 µM |  | > 100 µM |  |  | 13 µM | 18.9 µM
13 | NCCSC1(O)C(=O)c2ccccc2-c2ccccc21 (centres undefined) |  | 0.38 µM | 1.63 µM | 3.05 µM |  | 3.16 µM |  | 2.91 µM |  | 2.87 µM |  | 3.47 µM |  | 3.34 µM |  | 0.637 µM |  | 2.11 µM |  | 
14 | CCOC(=O)c1csc(NC(=O)CCN2CCOCC2)n1 |  | > 100 µM |  | > 100 µM |  | > 100 µM |  | > 100 µM |  | > 100 µM |  | > 100 µM |  | > 100 µM |  | > 100 µM |  | > 100 µM |  | 
15 | COc1cc(CN(C)N2C(=O)c3cccc4cc([N+](=O)[O-])cc(c34)C2=O)cc(OC)c1OC |  | > 100 µM |  | > 100 µM |  |  |  | > 100 µM |  | > 100 µM |  | > 100 µM |  | > 100 µM |  | > 100 µM |  | > 100 µM |  | 
16 | O=C(NC/C=C/CO)c1ccccc1 |  | > 100 µM |  |  |  | > 100 µM |  | > 100 µM |  | > 100 µM |  | > 100 µM |  | > 100 µM |  | > 100 µM |  |  | > 100 µM | > 100 µM
17 | O=c1n(Cc2ccccc2)c2ccccc2n1CC1CS1 (centres undefined) |  | > 100 µM |  | > 100 µM |  | > 100 µM |  | > 100 µM |  | > 100 µM |  | > 100 µM |  | > 100 µM |  | > 100 µM |  |  | > 100 µM | 
